Patent US20240165244A1 (Prelude Therapeutics Incorporated, priority 2022, published 2024)

Legend:
SMARCA2 = molecular target: T1, SMARCA2 (Homo sapiens, UniProt P51531); experiment: SMARCA2 HiBiT degradation assay in HeLa cells; format: cell-based; settings: 18 hours, highest concentration 10 μM
T1 construct: SMARCA2-HiBiT knock-in Hela monoclonal cell (CS302366); host or cells: HeLa monoclonal cells with heterozygous HiBiT knock-in at the endogenous SMARCA2 locus
Description: (§1) SMARCA2 HiBiT and SMARCA4 HiBiT Degradation Assay
HiBiT peptide knock-in of SMARCA2 in LgBiT expressing HEK293T cells was performed by CRISPR-mediated tagging system as described Promega. The homozygous HiBiT knock-in on c-terminus SMARCA2 was confirmed by sanger sequence. SMARCA2-HiBiT knock-in Hela monoclonal cell (CS302366) and SMARCA4-HiBiT knock-in Hela monoclonal cell (CS3023226) were purchased from Promega. The heterozygous HiBiT-knock-in was confirmed by sanger sequence in both SMARCA2-HiBiT and SMARCA4-HiBiT monoclonal cells.
(§2) SMARCA2 HiBiT and SMARCA4 HiBiT Degradation Assay in HeLa Cells
Dispense 10 ul aliquot of prepared Hela-SMARCA2-HiBiT or Hela-SMARCA4-HiBiT cells (1:1 ratio of cells:Trypan Blue (#1450013, Bio-Rad)) onto cell counting slide (#145-0011, Bio-Rad) and obtain cell density and cell viability using cell counter (TC20, Bio-Rad). Remove appropriate volume of resuspended cells from culture flask to accommodate 2500 cells/well @ 20 μL/well. Transfer Hela-HiBiT cells to 50 mL conical (#430290, Corning). Spin down at 1000 rpm for 5 min using tabletop centrifuge (SPINCHRON 15, Beckman). Discard supernatant and resuspend cell pellet in modified EMEM (#30-2003, ATCC) cell culture media containing 10% FBS (F2422-500ML, Sigma), and 1× Penicillin/Streptomycin ([…]) (30-002-CI, Corning) to a cell density of 125,000 cells/mL. Dispense 20 μLof resuspended Hela-HiBit cells per well in 384-well TC treated plate (#12-565-343, Thermo Scientific) using standard cassette (#50950372, Thermo Scientific) on Multidrop Combi (#5840310, Thermo Scientific) inside laminar flow cabinet.
Compounds were dissolved in DMSO to make 10 mM stock and 3-fold series dilutions were further conducted keeping the highest concentration 10 μM. Dispense test compounds onto plates using digital liquid dispenser (D300E, Tecan). Incubate plates in humidified tissue culture incubator @37° C. for 18 hours. Add 20 μL of prepared Nano-Glo® HiBiT Lytic detection buffer (N3050, Promega) to each well of 384-well plate using small tube cassette (#24073295, Thermo Scientific) on Multidrop Combi, incubate @ RT for 30-60 min. Read plates on microplate reader (Envision 2105, PerkinElmer) using 384 well Ultra-Sensitive luminescence mode. Raw data files and compound information reports are swept into centralized data lake and deconvoluted using automated scripts designed by TetraScience, Inc. Data analysis, curve-fitting and reporting done in Dotmatics Informatics Suite using Screening Ultra module.

SMARCA4 = molecular target: T2, SMARCA4 (Homo sapiens, UniProt P51532); experiment: SMARCA4 HiBiT degradation assay in HeLa cells; format: cell-based; settings: 18 hours, highest concentration 10 μM
T2 construct: SMARCA4-HiBiT knock-in Hela monoclonal cell (CS3023226); host or cells: HeLa monoclonal cells with heterozygous HiBiT knock-in at the endogenous SMARCA4 locus
T2 sequence (P51532 whole entry): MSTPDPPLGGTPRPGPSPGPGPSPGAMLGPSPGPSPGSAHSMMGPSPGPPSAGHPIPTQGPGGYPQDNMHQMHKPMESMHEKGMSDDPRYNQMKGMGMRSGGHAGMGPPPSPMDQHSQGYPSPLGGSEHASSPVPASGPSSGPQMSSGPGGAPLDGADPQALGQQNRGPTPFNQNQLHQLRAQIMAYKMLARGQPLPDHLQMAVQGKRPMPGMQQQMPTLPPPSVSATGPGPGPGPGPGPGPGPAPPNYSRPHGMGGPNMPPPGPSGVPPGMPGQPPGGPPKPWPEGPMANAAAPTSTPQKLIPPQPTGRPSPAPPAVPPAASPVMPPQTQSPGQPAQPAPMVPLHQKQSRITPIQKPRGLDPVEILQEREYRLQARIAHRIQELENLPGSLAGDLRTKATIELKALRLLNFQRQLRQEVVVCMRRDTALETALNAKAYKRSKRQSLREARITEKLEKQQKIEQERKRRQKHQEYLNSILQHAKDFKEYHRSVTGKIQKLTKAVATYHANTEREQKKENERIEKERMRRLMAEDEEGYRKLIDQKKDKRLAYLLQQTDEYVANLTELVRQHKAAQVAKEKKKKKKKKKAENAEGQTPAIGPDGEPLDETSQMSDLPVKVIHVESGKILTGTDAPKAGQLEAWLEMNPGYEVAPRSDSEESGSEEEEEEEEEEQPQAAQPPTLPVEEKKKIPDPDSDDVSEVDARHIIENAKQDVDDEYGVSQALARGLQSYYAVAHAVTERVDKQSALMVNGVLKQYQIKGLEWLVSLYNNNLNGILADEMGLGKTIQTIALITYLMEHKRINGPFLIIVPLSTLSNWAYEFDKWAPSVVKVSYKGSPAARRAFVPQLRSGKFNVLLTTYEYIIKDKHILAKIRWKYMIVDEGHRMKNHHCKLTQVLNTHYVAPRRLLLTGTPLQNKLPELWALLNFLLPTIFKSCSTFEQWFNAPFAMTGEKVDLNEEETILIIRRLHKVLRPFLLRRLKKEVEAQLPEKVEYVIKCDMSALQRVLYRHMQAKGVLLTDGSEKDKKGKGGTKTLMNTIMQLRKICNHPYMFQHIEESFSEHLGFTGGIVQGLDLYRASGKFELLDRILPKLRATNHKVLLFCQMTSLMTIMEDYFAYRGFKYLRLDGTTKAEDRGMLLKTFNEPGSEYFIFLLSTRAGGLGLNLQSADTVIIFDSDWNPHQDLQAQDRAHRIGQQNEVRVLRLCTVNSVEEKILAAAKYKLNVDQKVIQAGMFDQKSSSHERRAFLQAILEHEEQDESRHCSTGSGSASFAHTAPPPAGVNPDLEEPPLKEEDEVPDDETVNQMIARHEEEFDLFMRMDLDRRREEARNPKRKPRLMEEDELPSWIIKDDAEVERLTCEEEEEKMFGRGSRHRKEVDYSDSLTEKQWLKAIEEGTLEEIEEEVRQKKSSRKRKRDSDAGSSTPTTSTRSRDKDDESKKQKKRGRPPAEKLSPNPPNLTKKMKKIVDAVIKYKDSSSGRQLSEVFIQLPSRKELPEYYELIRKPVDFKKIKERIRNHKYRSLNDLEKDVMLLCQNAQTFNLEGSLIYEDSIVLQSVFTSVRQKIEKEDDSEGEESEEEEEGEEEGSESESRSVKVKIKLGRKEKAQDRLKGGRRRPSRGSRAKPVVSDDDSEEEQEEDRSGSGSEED
Description: as §1
HiBiT peptide knock-in of SMARCA2 in LgBiT expressing HEK293T cells was performed by CRISPR-mediated tagging system as described Promega. […] SMARCA2-HiBiT knock-in Hela monoclonal cell (CS302366) and SMARCA4-HiBiT knock-in Hela monoclonal cell (CS3023226) were purchased from Promega.
as §2
Remove appropriate volume of resuspended cells from culture flask to accommodate 2500 cells/well @ 20 μL/well. […] Spin down at 1000 rpm for 5 min using tabletop centrifuge (SPINCHRON 15, Beckman).
Dispense test compounds onto plates using digital liquid dispenser (D300E, Tecan). Incubate plates in humidified tissue culture incubator @37° C. for 18 hours. […] Raw data files and compound information reports are swept into centralized data lake and deconvoluted using automated scripts designed by TetraScience, Inc. Data analysis, curve-fitting and reporting done in Dotmatics Informatics Suite using Screening Ultra module.

T1 sequence (P51531 whole entry): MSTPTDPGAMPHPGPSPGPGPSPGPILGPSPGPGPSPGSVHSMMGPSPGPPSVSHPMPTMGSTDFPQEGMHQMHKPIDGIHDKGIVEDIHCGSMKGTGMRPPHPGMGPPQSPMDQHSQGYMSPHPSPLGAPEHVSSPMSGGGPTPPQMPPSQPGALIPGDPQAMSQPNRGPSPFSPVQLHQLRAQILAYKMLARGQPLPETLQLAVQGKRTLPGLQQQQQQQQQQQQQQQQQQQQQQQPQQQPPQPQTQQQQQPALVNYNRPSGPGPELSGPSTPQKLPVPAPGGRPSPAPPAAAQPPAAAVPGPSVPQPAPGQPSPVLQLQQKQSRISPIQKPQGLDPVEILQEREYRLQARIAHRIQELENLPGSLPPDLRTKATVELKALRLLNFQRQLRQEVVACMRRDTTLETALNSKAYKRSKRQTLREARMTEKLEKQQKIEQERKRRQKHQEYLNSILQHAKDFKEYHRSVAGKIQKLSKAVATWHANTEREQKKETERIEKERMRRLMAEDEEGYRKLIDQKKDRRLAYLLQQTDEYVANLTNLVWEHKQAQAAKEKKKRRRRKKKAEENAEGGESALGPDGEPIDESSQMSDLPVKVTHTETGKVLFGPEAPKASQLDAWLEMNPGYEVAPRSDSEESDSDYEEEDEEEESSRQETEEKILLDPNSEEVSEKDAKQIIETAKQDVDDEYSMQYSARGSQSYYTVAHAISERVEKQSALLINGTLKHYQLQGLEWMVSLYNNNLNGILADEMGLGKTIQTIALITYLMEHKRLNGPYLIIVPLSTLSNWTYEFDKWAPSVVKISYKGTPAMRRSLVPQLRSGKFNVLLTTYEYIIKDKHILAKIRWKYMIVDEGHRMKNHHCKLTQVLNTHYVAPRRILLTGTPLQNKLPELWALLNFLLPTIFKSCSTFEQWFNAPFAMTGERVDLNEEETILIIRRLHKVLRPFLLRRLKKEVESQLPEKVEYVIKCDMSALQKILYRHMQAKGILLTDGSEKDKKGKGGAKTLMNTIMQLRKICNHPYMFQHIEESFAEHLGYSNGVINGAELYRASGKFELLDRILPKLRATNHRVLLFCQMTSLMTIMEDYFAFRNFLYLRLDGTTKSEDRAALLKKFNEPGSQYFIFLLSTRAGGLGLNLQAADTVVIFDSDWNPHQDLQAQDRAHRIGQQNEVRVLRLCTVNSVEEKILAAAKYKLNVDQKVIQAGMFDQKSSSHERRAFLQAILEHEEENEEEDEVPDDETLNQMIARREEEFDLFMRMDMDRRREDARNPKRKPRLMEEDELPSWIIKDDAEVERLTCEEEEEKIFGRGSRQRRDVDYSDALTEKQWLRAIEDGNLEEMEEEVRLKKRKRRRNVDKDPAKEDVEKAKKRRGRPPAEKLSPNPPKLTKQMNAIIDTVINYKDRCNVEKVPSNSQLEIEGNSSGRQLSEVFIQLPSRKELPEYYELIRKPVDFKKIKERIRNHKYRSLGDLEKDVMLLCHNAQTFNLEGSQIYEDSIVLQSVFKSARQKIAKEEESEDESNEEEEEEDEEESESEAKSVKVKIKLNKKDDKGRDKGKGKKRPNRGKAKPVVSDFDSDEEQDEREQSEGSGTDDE

Structure (SMILES)	DC50 (SMARCA2) [nM]	Dmax (SMARCA2) [%]	DC50 (SMARCA4) [nM]	Dmax (SMARCA4) [%]
O=C1CCC(N2Cc3ccc(N4CCN(Cc5ccc(O[C@@H]6C[C@@H]7CNc8nnc(-c9cc(F)cc(F)c9O)cc8N7C6)cc5)CC4)cc3C2=O)C(=O)N1 (stereo partly drawn) [Example 1, 3-(6-(4-(4-(((6aR,8R)-2-(3,5-difluoro-2-hydroxyphenyl)-5,6,6a,7,8,9-hexa-hydropyrrolo[1′,2′:4,5]pyrazino[2,3-c]pyridazin-8-yl)oxy)benzyl)piperazin-1-yl)-1-oxoisoindolin-2-yl)piperidine-2,6-dione]	< 100	> 75	< 100	> 75
Cc1cc(CN2CCN(c3ccc4c(c3)C(=O)N(C3CCC(=O)NC3=O)C4)CC2)ccc1O[C@@H]1C[C@@H]2CNc3nnc(-c4cc(F)cc(F)c4O)cc3N2C1 (stereo partly drawn) [Example 2, 3-(6-(4-(4-(((6aR,8R)-2-(3,5-difluoro-2-hydroxyphenyl)-5,6,6a,7,8,9-hexahydropyrrolo[1′,2′:4,5]pyrazino[2,3-c]pyridazin-8-yl)oxy)-3-methylbenzyl)piperazin-1-yl)-1-oxoisoindolin-2-yl)piperidine-2,6-dione]	< 100	> 75	< 100	> 75
O=C1CCC(N2Cc3ccc(N4CCN(Cc5ccc(O[C@@H]6C[C@@H]7CNc8nnc(-c9cc(F)cc(F)c9O)cc8N7C6)cn5)CC4)cc3C2=O)C(=O)N1 (stereo partly drawn) [Example 3, 3-(6-(4-((5-(((6aR,8R)-2-(3,5-difluoro-2-hydroxyphenyl)-5,6,6a,7,8,9-hexahydropyrrolo[1′,2′:4,5]pyrazino[2,3-c]pyridazin-8-yl)oxy)pyridin-2-yl)methyl)piperazin-1-yl)-1-oxoisoindolin-2-yl)piperidine-2,6-dione]	< 100	> 75	< 100	50 to 75
O=C1CCC(N2Cc3ccc(N4CCN(Cc5ccc(O[C@@H]6C[C@@H]7CNc8nnc(-c9cc(F)cc(F)c9O)cc8N7C6)c(F)c5)CC4)cc3C2=O)C(=O)N1 (stereo partly drawn) [Example 4, 3-(6-(4-(4-(((6aR,8R)-2-(3,5-difluoro-2-hydroxyphenyl)-5,6,6a,7,8,9-hexahydropyrrolo[1′,2′:4,5]pyrazino[2,3-c]pyridazin-8-yl)oxy)-3-fluorobenzyl)piperazin-1-yl)-1-oxoisoindolin-2-yl)piperidine-2,6-dione]	< 100	> 75	< 100	> 75
O=C1CCC(N2Cc3ccc(N4CCN(Cc5ccc(O[C@@H]6C[C@@H]7CNc8nnc(-c9cccc(F)c9O)cc8N7C6)cc5)CC4)cc3C2=O)C(=O)N1 (stereo partly drawn) [Example 5, 3-(6-(4-(4-(((6aR,8R)-2-(3-fluoro-2-hydroxyphenyl)-5,6,6a,7,8,9-hexahydropyrrolo[1′,2′:4,5]pyrazino[2,3-c]pyridazin-8-yl)oxy)benzyl)piperazin-1-yl)-1-oxoisoindolin-2-yl)piperidine-2,6-dione]	< 100	> 75	< 100	> 75
O=C1CCC(N2Cc3ccc(N4CCN(Cc5ccc(O[C@@H]6C[C@@H]7CNc8nnc(-c9cc(F)cc(F)c9O)cc8N7C6)c(Cl)c5)CC4)cc3C2=O)C(=O)N1 (stereo partly drawn) [Example 6, 3-(6-(4-(3-chloro-4-(((6aR,8R)-2-(3,5-difluoro-2-hydroxyphenyl)-5,6,6a,7,8,9-hexahydropyrrolo[1′,2′:4,5]pyrazino[2,3-c]pyridazin-8-yl)oxy)benzyl)piperazin-1-yl)-1-oxoisoindolin-2-yl)piperidine-2,6-dione]	< 100	> 75	< 100	> 75
Cc1cc(O[C@@H]2C[C@@H]3CNc4nnc(-c5cc(F)cc(F)c5O)cc4N3C2)ccc1CN1CCN(c2ccc3c(c2)C(=O)N(C2CCC(=O)NC2=O)C3)CC1 (stereo partly drawn) [Example 7, 3-(6-(4-(4-(((6aR,8R)-2-(3,5-difluoro-2-hydroxyphenyl)-5,6,6a,7,8,9-hexahydropyrrolo[1′,2′:4,5]pyrazino[2,3-c]pyridazin-8-yl)oxy)-2-methylbenzyl)piperazin-1-yl)-1-oxoisoindolin-2-yl)piperidine-2,6-dione]	< 100	> 75	< 100	50 to 75

Results, then the compound that gave them:

DC50 (SMARCA2) [nM]	Dmax (SMARCA2) [%]	DC50 (SMARCA4) [nM]	Dmax (SMARCA4) [%]	Structure (SMILES)
< 100	> 75	< 100	> 75	O=C1CCC(N2Cc3ccc(N4CCN(Cc5ccc(O[C@@H]6C[C@@H]7CNc8nnc(-c9cccc(Cl)c9O)cc8N7C6)cc5)CC4)cc3C2=O)C(=O)N1 (stereo partly drawn) [Example 8, 3-(6-(4-(4-(((6aR,8R)-2-(3-chloro-2-hydroxyphenyl)-5,6,6a,7,8,9-hexahydropyrrolo[1′,2′:4,5]pyrazino[2,3-c]pyridazin-8-yl)oxy)benzyl)piperazin-1-yl)-1-oxoisoindolin-2-yl)piperidine-2,6-dione]
< 100	> 75	< 100	50 to 75	Cc1cc(O[C@@H]2C[C@@H]3CNc4nnc(-c5cc(F)cc(F)c5O)cc4N3C2)c(C)cc1CN1CCN(c2ccc3c(c2)C(=O)N(C2CCC(=O)NC2=O)C3)CC1 (stereo partly drawn) [Example 9, 3-(6-(4-(4-(((6aR,8R)-2-(3,5-difluoro-2-hydroxyphenyl)-5,6,6a,7,8,9-hexahydropyrrolo[1′,2′:4,5]pyrazino[2,3-c]pyridazin-8-yl)oxy)-2,5-dimethylbenzyl)piperazin-1-yl)-1-oxoisoindolin-2-yl)piperidine-2,6-dione]
< 100	> 75	> 1000	50 to 75	Cc1cc(O[C@@H]2C[C@@H]3CNc4nnc(-c5cccc(Cl)c5O)cc4N3C2)ccc1CN1CCN(c2ccc3c(c2)C(=O)N(C2CCC(=O)NC2=O)C3)CC1 (stereo partly drawn) [Example 10, 3-(6-(4-(4-(((6aR,8R)-2-(3-chloro-2-hydroxyphenyl)-5,6,6a,7,8,9-hexahydropyrrolo[1′,2′:4,5]pyrazino[2,3-c]pyridazin-8-yl)oxy)-2-methylbenzyl)piperazin-1-yl)-1-oxoisoindolin-2-yl)piperidine-2,6-dione]
< 100	> 75	< 100	50 to 75	Cc1cc(O[C@@H]2C[C@@H]3CNc4nnc(-c5cccc(F)c5O)cc4N3C2)ccc1CN1CCN(c2ccc3c(c2)C(=O)N(C2CCC(=O)NC2=O)C3)CC1 (stereo partly drawn) [Example 11, 3-(6-(4-(4-(((6aR,8R)-2-(3-fluoro-2-hydroxyphenyl)-5,6,6a,7,8,9-hexahydropyrrolo[1′,2′:4,5]pyrazino[2,3-c]pyridazin-8-yl)oxy)-2-methylbenzyl)piperazin-1-yl)-1-oxoisoindolin-2-yl)piperidine-2,6-dione]
< 100	> 75	< 100	> 75	COc1cc(O[C@@H]2C[C@@H]3CNc4nnc(-c5cc(F)cc(F)c5O)cc4N3C2)ccc1CN1CCN(c2ccc3c(c2)C(=O)N(C2CCC(=O)NC2=O)C3)CC1 (stereo partly drawn) [Example 12, 3-(6-(4-(4-(((6aR,8R)-2-(3,5-difluoro-2-hydroxyphenyl)-5,6,6a,7,8,9-hexahydropyrrolo[1′,2′:4,5]pyrazino[2,3-c]pyridazin-8-yl)oxy)-2-methoxybenzyl)piperazin-1-yl)-1-oxoisoindolin-2-yl)piperidine-2,6-dione]
